Reference: US9539303B2, “Treatment of Ras-expressing tumors” (Celgene Corporation, priority 2006, dated 2017)
Values joined by “and” are separate entries in the source; they are usually repeats but may differ in a detail not shown here. Equal entries are not always repeated. “Also recorded” adds a separate entry of the source.

Assays:
[1] = Animal weight and drug toxicity, BxPC-3 study
From the text: (§1) Model Information—Female nude mice (nu/nu) between 5 and 6 weeks of age weighing approximately 20 grams were obtained from Harlan, Inc. (Madison, Wis.). PANC-1, obtained from the ATCC, is a pancreas tumor cell line originating from a person^(1-2). BxPC-3, obtained from the American Type Culture Collection (ATCC), is a pancreas tumor cell line originating from a person^(3-4). PANC-1 Study: Animals were implanted subcutaneously (SC) by trocar with fragments of PANC-1 harvested from SC growing tumors in nude mice hosts. When tumors grew to approximately 135 cubic millimeters (mm^3) in size (17 days following implantation, animals were pair-matched by tumor size into treatment and control groups; each treatment group contained nine mice. BxPC-3 Study: Animals were implanted subcutaneously (SC) by trocar with fragments of BxPC-3 harvested from SC growing tumors in nude mice hosts. When tumors grew to approximately 85 cubic millimeters (mm^3) in size (19 days following implantation), animals were pair-matched by tumor size into treatment and control groups; each treatment group contained nine mice. Animals in both studies were ear-tagged and followed individually throughout the experiment.
(§2) Study Design and Dosing—Initial doses were administered on Day 1 following pair-matching; both experiments were carried out as tumor growth inhibition (TGI) studies. Animals were dosed intravenously (IV) via tail vein with FK228 once every four days for three treatments (Q4Dx3) or by intraperitoneal (IP) injection with gemcitabine once every three days for four treatments (Q3Dx4), either alone or in combination, at the doses listed below (Table 1). To serve as a negative control, FK228 vehicle (2% ethanol, 8% propylene glycol, 90% 0.9% saline) was injected on a Q4Dx3 schedule.
(§3) Animal Weights—Individual and group mean weights±SD and percent weight change through Day 25 (PANC-1) or Day 29 (BxPC-3) were recorded twice weekly until study completion beginning Day 1. Final group mean weights±SD and group nadir values are reported; weight data from individual animals experiencing technical or drug-related deaths was censored from final group calculations.
(§4) Moribundity/Mortality—Animals were observed twice weekly for general moribundity and daily for mortality. Animal deaths were assessed as drug-related or technical based on factors including gross observation and weight loss; reported animal death information includes type, number, and day of death for each group.

p21^waf = test: Tissue biomarker immunoblotting of PANC-1 xenograft tumors: p21waf; type: in vivo; conditions: PANC-1 tumors at study completion; FK228 5 mg/kg Q4Dx3, gemcitabine 80 mg/kg Q3Dx4, or both
Protocol: (§5) Specimen Collection: […] Tumor xenograft tissue and serum specimens were obtained from in vivo studies performed by the Preclinical Research Laboratory at the completion of the experiments. […] Serum was obtained from whole blood and stored frozen at -70° C. Tissue Biomarkers: Tumor levels of acetylated histone-4, histone-4, […] were quantified by immunoblotting as described. Briefly, frozen tissue was pulverized under liquid nitrogen and homogenized in hypotonic lysis buffer. Small aliquots of the extracts were used for analysis of protein concentration by micro-BCA assay with bovine serum albumin as a protein standard. An equal amount of extracts containing about 20-50 μg protein was electrophoresed in SDS polyacrylamide gels. Proteins were transferred to ImmunoBlot PVDF membrane and were probed with appropriate primary and secondary antibodies. The chemiluminescence signal was captured by autoradiography, quantified by densitometry and expressed as a ratio of actin in each sample lane. For each biomarker, means and standard errors were calculated in each treatment group. […] Following quantitative analysis of biomarker levels in each sample, the results were normalized for b-actin and expressed as percentages of untreated controls. […]

[2] = test system: BxPC-3 human pancreatic tumor xenograft; test: BxPC-3 human pancreatic tumor xenograft tumor growth inhibition study (Example 3); type: in vivo, female nude mice (nu/nu); conditions: BxPC-3 study; for % TGI: Day 29
From the text: (§6) (Madison, Wis.). […] Tumor measurements were converted to cubic millimeter tumor volume using the formula^(5): […] TGI values for each treatment group are reported at study completion; these calculations are based on the final study day. […] Individual mice lacking palpable tumors were classified as undergoing complete regression (CR). Animals experiencing partial or complete tumor regressions were censored from TGI calculations. However, data from these animals was included in statistical analysis calculations. In addition, weight data from these animals was included in daily and final group calculations. Tumor Necrosis-Degree of tumor necrosis was rated at each tumor measurement using the following arbitrary index: […]

c-Myc = test: Tissue biomarker immunoblotting of PANC-1 xenograft tumors: c-Myc; type: in vivo; conditions: PANC-1 tumors at study completion; FK228 5 mg/kg Q4Dx3, gemcitabine 80 mg/kg Q3Dx4, or both; actin-normalized vs control
Protocol: as §5

acetylated histone 3 = test: Tissue biomarker immunoblotting of PANC-1 xenograft tumors: acetylated histone 3; type: in vivo; conditions: PANC-1 tumors at study completion; FK228 5 mg/kg Q4Dx3, gemcitabine 80 mg/kg Q3Dx4, or both
Protocol: as §5

[3] = Animal weight and drug toxicity, PANC-1 study
From the text: as §1, §2, §3, §4

[4] = test system: PANC-1 human pancreatic tumor xenograft; test: PANC-1 human pancreatic tumor xenograft tumor growth inhibition study (Example 3); type: in vivo, female nude mice (nu/nu); conditions: PANC-1 study
From the text: as §6

[5] = test system: Panc-1 human pancreas tumors (oncogenic K-ras); test: Panc-1 mouse xenograft model, tumor growth (Example 1); type: in vivo, female nude mice; conditions: Panc-1 xenograft; N=9 mice per group
Protocol: In this study, female nude mice were implanted subcutaneously (SC) by trocar with Panc-1 tumor fragments harvested from SC growing tumors in nude mice hosts. […] The day of treatment initiation was specified as Day 1. Vehicle control and FK228 were administered intravenously on a […] schedule (Days 1, 5, and 9). Gemcitabine was administered by an intraperitoneal injection on a […] schedule (Days 1, 4, 7, 10). Tumors were measured by Vernier calipers twice weekly.

acetylated histone 4 = test: Tissue biomarker immunoblotting of PANC-1 xenograft tumors: acetylated histone 4; type: in vivo; conditions: PANC-1 tumors at study completion; FK228 5 mg/kg Q4Dx3, gemcitabine 80 mg/kg Q3Dx4, or both
Protocol: as §5

[6] = Day 29, Gemcitabine 40 mg/kg IP Q3Dx4
[7] = Day 29, Gemcitabine 80 mg/kg IP Q3Dx4
[8] = at the evaluated doses and schedules
[9] = Day 25, Gemcitabine 40 mg/kg IP Q3Dx4
[10] = Day 25, Gemcitabine 80 mg/kg IP Q3Dx4

Which results are given for `Nc1ccn([C@@H]2O[C@H](CO)[C@@H](O)C2(F)F)c(=O)n1` [Gemcitabine, gemcitabine]?
Final weight data % change [1, 6]: +9%; Final weight data mean ± SD [1, 6]: 25±3 G; Final weight data % change [1, 7]: +1%; Final weight data mean ± SD [1, 7]: 22±4 G; Drug deaths total ([1]; Gemcitabine 40 mg/kg IP Q3Dx4): 0/9 and 0; Weight nadir % change ([1]; Gemcitabine 40 mg/kg IP Q3Dx4): No weight loss; Drug deaths total ([1]; Gemcitabine 80 mg/kg IP Q3Dx4): 0/9 and 0; Weight nadir % change ([1]; Gemcitabine 80 mg/kg IP Q3Dx4): −9%; Weight nadir day ([1]; Gemcitabine 80 mg/kg IP Q3Dx4): 11; p21^waf expression (p21^waf): downregulated; also recorded: down-regulated; % TGI ([2]; Gemcitabine 40 mg/kg IP Q3Dx4): 20%; % TGI ([2]; Gemcitabine 80 mg/kg IP Q3Dx4): 9%; #PR/CR ([2]; Gemcitabine 40 mg/kg IP Q3Dx4): 0/9 and 0/0; Activity according to NCI standards ([2]; Gemcitabine 40 mg/kg IP Q3Dx4): inactive; Tumor necrosis ([2]; Gemcitabine 40 mg/kg IP Q3Dx4): 1/9 animals reported severe tumor necrosis; #PR/CR ([2]; Gemcitabine 80 mg/kg IP Q3Dx4): 0/9 and 0/0; Activity according to NCI standards ([2]; Gemcitabine 80 mg/kg IP Q3Dx4): inactive; Tumor necrosis ([2]; Gemcitabine 80 mg/kg IP Q3Dx4): 1/9 animals reported mild tumor necrosis; calculated TGI values [2, 8]: less than 58%; extent of inhibition of c-Myc expression (c-Myc): 50%; acetylation of histone 3 (acetylated histone 3): significantly inhibited; Final weight data % change [3, 9]: +7%; Final weight data mean ± SD [3, 9]: 24±1 G; Final weight data % change [3, 10]: +12%; Final weight data mean ± SD [3, 10]: 26±3 G; Drug deaths total ([3]; Gemcitabine 40 mg/kg IP Q3Dx4): 0/9 and 0; Weight nadir % change ([3]; Gemcitabine 40 mg/kg IP Q3Dx4): −2%; Weight nadir day ([3]; Gemcitabine 40 mg/kg IP Q3Dx4): 11; Drug deaths total ([3]; Gemcitabine 80 mg/kg IP Q3Dx4): 0/9 and 0; Weight nadir % change ([3]; Gemcitabine 80 mg/kg IP Q3Dx4): −3%; Weight nadir day ([3]; Gemcitabine 80 mg/kg IP Q3Dx4): 11; #PR/CR ([4]; Gemcitabine 40 mg/kg IP Q3Dx4): 1/9 and 1/0; Activity according to NCI standards ([4]; Gemcitabine 40 mg/kg IP Q3Dx4): inactive; Tumor necrosis ([4]; Gemcitabine 40 mg/kg IP Q3Dx4): 1/9 animals reported mild tumor necrosis and 4/9 reported moderate necrosis; #PR/CR ([4]; Gemcitabine 80 mg/kg IP Q3Dx4): 0/9 and 0/0; % TR ([4]; Gemcitabine 80 mg/kg IP Q3Dx4): 0%; Activity according to NCI standards ([4]; Gemcitabine 80 mg/kg IP Q3Dx4): inactive; Tumor necrosis ([4]; Gemcitabine 80 mg/kg IP Q3Dx4): 1/9 animals reported slight tumor necrosis, 2/9 reported mild tumor necrosis, and 1/9 reported moderate necrosis; calculated TGI values [4, 8]: less than 58%; tumor regression [5]: no regression; levels of acetylated histone 4 vs control (acetylated histone 4): on the control level
